# Test results as given in patent US20050261273A1, “Substituted urea and carbamate, phenacyl-2-hydroxy-3-diaminoalkane, and benzamide-2-hydroxy-3-diaminoalkane aspartyl-protease inhibitors” (priority 2004, published 2005).
# Biological target: T1, cathepsin E (catE) versus beta-secretase (BACE) (Homo sapiens, UniProt P14091)
# T1 sequence (P14091 54-396): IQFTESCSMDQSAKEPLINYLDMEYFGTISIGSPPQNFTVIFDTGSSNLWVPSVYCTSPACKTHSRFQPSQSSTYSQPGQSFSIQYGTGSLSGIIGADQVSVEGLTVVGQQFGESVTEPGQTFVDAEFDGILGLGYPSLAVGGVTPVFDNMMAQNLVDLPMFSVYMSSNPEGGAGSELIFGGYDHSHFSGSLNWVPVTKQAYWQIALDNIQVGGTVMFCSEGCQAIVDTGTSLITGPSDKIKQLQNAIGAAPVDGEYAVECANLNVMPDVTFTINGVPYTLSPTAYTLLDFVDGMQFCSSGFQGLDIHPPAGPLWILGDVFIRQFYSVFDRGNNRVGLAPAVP
# Experiment: CatE/BACE selectivity (ratio of IC50 values)
# Type: biochemical
# Conditions: each value is an average of four experimental runs; multiple values = more than one experiment
# Description: (§1) Investigation of potential beta-secretase inhibitors produced compounds with increased selectivity for beta-secretase over other aspartyl proteases such as cathepsin D (catD), cathepsin E (catE), Human Immunodeficiency Viral (HIV) protease, and renin. Selectivity was calculated as a ratio of inhibition (IC50) values in which the inhibition of beta-secretase was compared to the inhibition of other aspartyl proteases.
# The compounds of formula (I) can be selective for beta-secretase versus catE. […] Selectivity is reported as the ratio of IC50(catE):IC50(BACE).
# (§2) In the following examples, each value is an average of four experimental runs and multiple values for one compoundd indicate that more than one experiment was conducted.
row,SMILES,IC50 CatE/IC50 BACE
1,CC(C)(CCC(=O)NC(Cc1cc(F)cc(F)c1)C(O)CNC1(c2cccc(C(C)(C)C)c2)CCCCC1)C(=O)O (stereo not drawn) [Example 325B-1],8.3
2,CC(C)(C)c1cccc(C2(NCC(O)C(Cc3cc(F)cc(F)c3)NC(=O)CCCC(=O)O)CCCCC2)c1 (stereo not drawn) [Example 325B-3],3.4
3,CC(C)(C)c1cccc(C2(NCC(O)C(Cc3cc(F)cc(F)c3)NC(=O)COCC(=O)O)CCCCC2)c1 (stereo not drawn) [Example 325B-4],3.2
4,CC(C)(C)c1cccc(C2(NCC(O)C(Cc3cc(F)cc(F)c3)NC(=O)c3csc(NS(C)(=O)=O)n3)CCCCC2)c1 (stereo not drawn) [Example 325B-5],1.2

# Biological target: cathepsin D (catD) versus beta-secretase (BACE) (Homo sapiens, UniProt P07339)
# Sequence (P07339 65-412): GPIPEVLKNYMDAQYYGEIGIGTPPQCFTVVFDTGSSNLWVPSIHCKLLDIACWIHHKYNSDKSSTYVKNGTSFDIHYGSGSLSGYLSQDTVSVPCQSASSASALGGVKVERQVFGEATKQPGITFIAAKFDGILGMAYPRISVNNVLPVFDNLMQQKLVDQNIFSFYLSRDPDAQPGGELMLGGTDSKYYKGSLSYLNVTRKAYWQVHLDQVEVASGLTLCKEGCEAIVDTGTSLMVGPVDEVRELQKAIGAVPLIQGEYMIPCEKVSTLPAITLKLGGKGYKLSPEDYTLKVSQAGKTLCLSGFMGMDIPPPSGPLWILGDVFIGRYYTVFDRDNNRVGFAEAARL
# Experiment: CatD/BACE selectivity (ratio of IC50 values)
# Type: biochemical
# Conditions: each value is an average of four experimental runs; multiple values = more than one experiment
# Description: as §1
# The compounds of formula (I) can be selective for beta-secretase versus catD.
# as §2
row,SMILES,IC50 CatD/IC50 BACE
1,CN(c1cccc(C(=O)NC(Cc2cc(F)cc(F)c2)C(O)CNC2(c3cccc(C(C)(C)C)c3)CCCCC2)c1)S(C)(=O)=O (stereo not drawn) [Example 325A-2],3.1
2,CC(C)(C)c1cccc(C2(NCC(O)C(Cc3cc(F)cc(F)c3)NC(=O)COCC(=O)O)CCCCC2)c1 (stereo not drawn) [Example 325A-3],2.0
3,CC(C)(C)c1cccc(C2(NCC(O)C(Cc3cc(F)cc(F)c3)NC(=O)CCCC(=O)O)CCCCC2)c1 (stereo not drawn) [Example 325A-4],1.9
4,CC(C)(CCC(=O)NC(Cc1cc(F)cc(F)c1)C(O)CNC1(c2cccc(C(C)(C)C)c2)CCCCC1)C(=O)O (stereo not drawn) [Example 325A-5],1.7
5,CC(C)(C)c1cccc(C2(NCC(O)C(Cc3cc(F)cc(F)c3)NC(=O)c3csc(NS(C)(=O)=O)n3)CCCCC2)c1 (stereo not drawn) [Example 325A-6],5.0
